Patent US20110207729A1, “BICYCLIC ACYLGUANIDINE DERIVATIVE” (ASTELLAS PHARMA INC., priority 2007, published 2011)
Counter-ions that a name gives are not always drawn.

Each compound was assayed against T1, human 5-HT5A receptor (Homo sapiens, UniProt P47898) (assay: Test on a human 5-HT5A receptor binding inhibition ([3H]5-CT)). Conditions: membrane from HEK293 cells expressing human 5-HT5A receptor; Ki calculated from IC50 and Kd 4.95 nM.
T1 construct: expressed in transfected cells; membrane preparation
Experimental: Acquisition of HEK293 cells for forced expressions of a human 5-HT5A receptor
The ORF (open reading frame; protein coding region) of a human 5-HT5A receptor (Genbank AF498985) was cloned from a human hippocampus cDNA library, and then inserted into a pCR2.1 vector (Invitrogen), and Escherichia coli containing the plasmid was cultured in a large amount. Next, the full-length cDNA sequence of the human 5-HT5A receptor was analyzed, and recombined into a pcDNA3.1 vector (Invitrogen) as an expression vector and cultured in a large amount. HEK293 established cells (ATCC) derived from the human fetal kidney were seeded, the expression plasmid (1 μg) obtained above were added thereto with LIPOFECTAMINE 2000 (Invitrogen; 2 μl), the gene was transfected into HEK293 cells, and the expression cells were screened with a drug-resistant marker, Geneticin (G418 sulfate 500 μg/ml; Kanto Chemical Co., Inc.). Thus prepared recombinant cells which express the gene were cultured in a medium containing D-MEM (Dulbecco's modified eagle medium, Sigma), 10% FCS (Fetal calf serum: fetal bovine serum), 1% Pc./Sm (Penicillin/Streptomycin, Invitrogen), and 500 μg/ml G418 for 3 days. These experimental operations follow an manual for gene operation experiment and an instruction appended in a reagent, and the like, such as a known method (Sambrook, J. et al, Molecular Cloning—A Laboratory Manual”, Cold Spring Harabor laboratory, NY, 1989).
(1) Preparation of a Membrane from HEK293 Cells for Forced Expressions of a Human 5-HT5A Receptor
HEK293 cells for forced expressions of a human 5-HT5A receptor were cultured in a F500 plate, and scraped with a scraper. After centrifugation, a precipitate was collected, and an incubation buffer (50 mM Tris (HCl) (pH 7.4), 10 mM MgSO4, and 0.5 mM EDTA (ethylenediamine tetraacetic acid)) were added thereto. After homogenization, it was further centrifuged, and the precipitate was added with the incubation buffer, followed by thoroughly suspending. This operation was repeated, and a protein concentration was measured, thereby completing the preparation of a membrane.
(2) Test on a Human 5-HT5A Receptor Binding Inhibition
A solution of a compound to be tested and 100 μM 5-CT (5-carboxamidetriptamine) in DMSO was added to a 96-well plate at 2 μl/well, and suspended in an incubation buffer, and a membrane from HEK293 cells for forced expressions of a human 5-HT5A receptor prepared at 200 μg/ml was added at 100 μl/well. After incubation at room temperature for 15 minutes, a [^3H]5-CT solution (2 nM [^3H]5-CT, incubation buffer) was added thereto at 100 μl/well.
Separately, 100 μl of the solution was distributed into a liquid scintillation vial, and 2 ml of Aquasol II (registered trademark) was added thereto, followed by stirring. Then, a radioactivity was measured by a liquid scintillation counter. It was incubated at 37° C. for 60 minutes. The reaction mixture was sucked into 96-well GF/C filter plate that had been pre-treated with 0.2% polyethyleneimine, and washed six times with an ice-cooled, 50 mM Tris (pH 7.5) buffer. The GF/C filter plate was dried.
Microscint TMPS (registered trademark) was added thereto at 40 μl/well. A radioactivity remaining on the GF/C filter plate was measured by a top counter.
The [^3H]5-CT binding inhibiting activity by the compound to be tested in each experiment was determined as an IC50 value with a radioactivity upon addition of DMSO alone being 0% inhibition, and a radioactivity upon addition of 1 μM 5-CT being 100% inhibition. Separately, a Ki value was calculated from the Kd value of the [^3H]5-CT determined from Scatchard analysis, by the following equation.
Ki=IC50(1+Concentration of ligands added/Kd(4.95 nM))

T1 sequence (P47898 whole entry): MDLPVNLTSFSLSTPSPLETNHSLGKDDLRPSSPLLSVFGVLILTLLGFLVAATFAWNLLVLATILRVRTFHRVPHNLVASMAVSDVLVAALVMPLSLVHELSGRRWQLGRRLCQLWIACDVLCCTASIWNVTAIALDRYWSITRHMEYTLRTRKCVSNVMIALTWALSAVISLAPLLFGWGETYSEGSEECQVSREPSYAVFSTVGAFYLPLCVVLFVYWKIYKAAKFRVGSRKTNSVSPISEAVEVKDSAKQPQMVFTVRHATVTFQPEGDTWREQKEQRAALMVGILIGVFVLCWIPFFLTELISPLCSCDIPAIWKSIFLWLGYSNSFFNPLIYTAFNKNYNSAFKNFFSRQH

| SMILES | Ki [nM] |
| --- | --- |
| NC(N)=NC(=O)c1ccc2c(c1)C(c1c(F)cc(F)cc1F)CCO2 (stereo not shown) [Example 3-31] | 3 to 30 |
| NC(N)=NC(=O)c1ccc2c(c1)C(c1c(F)cccc1Cl)=CCO2 [Example 1-96] | 0.3 to 3 |
| NC(N)=NC(=O)c1ccc2c(c1)C(c1cc(Cl)c(F)cc1F)=CCC2 [Example 2-136] | 3 to 30 |
| NC(N)=NC(=O)c1ccc2c(c1)C(c1ccc([N+](=O)[O-])cc1)=CCC2 [Example 2-48] | 0.3 to 3 |
| COCCN/C(N)=N/C(=O)c1ccc2c(c1)C(c1c(F)cccc1F)=CCO2 [Example 1-03, N-{1-amino[(2-methoxyethyl)amino]methylene}-4-(2,6-difluorophenyl)-2H-chromene-6-carboxamide hydrochloride] | 3 to 30 |
| COc1ccc(C2=C(C)CCc3ccc(C(=O)N=C(N)N)cc32)c(C)c1 [Example 2-170] | 0.3 to 3 |
| COc1ccccc1C1=CCCCc2ccc(C(=O)N=C(N)N)cc21 [Example 3-06] | 30 to 300 |
| NC(N)=NC(=O)c1ccc2c(c1)C(c1ccccc1[N+](=O)[O-])=CCC2 [Example 2-46] | 3 to 30 |
| CSc1ccccc1C1=CCCc2ccc(C(=O)N=C(N)N)cc21 [Example 2-82] | 3 to 30 |
| NC(N)=NC(=O)c1ccc2c(c1)C(c1cc(C(F)(F)F)ccc1F)=CCO2 [Example 1-65] | 3 to 30 |
| COc1c(F)cccc1-c1csc2ccc(C(=O)N=C(N)N)cc12 [Example 3-27] | 3 to 30 |
| N#Cc1ccc(C2=CCCc3ccc(C(=O)N=C(N)N)cc32)cc1 [Example 2-25] | 0.3 to 3 |
| N#Cc1ccc(C2=CCSc3ccc(C(=O)N=C(N)N)cc32)cc1 [Example 3-17] | 3 to 30 |
| CC1C=C(c2cccnc2F)c2cc(C(=O)N=C(N)N)ccc2O1 (stereo not shown) [Example 1-134] | 30 to 300 |
| Cn1nccc1C1=CCCc2ccc(C(=O)N=C(N)N)cc21 [Example 2-81] | 3 to 30 |
| NC(N)=NC(=O)c1ccc2c(c1)C(c1ccc(F)nc1)=CCC2 [Example 2-53] | 3 to 30 |
| NC(N)=NC(=O)c1cc(F)c2c(c1)C(c1c(F)cc(F)cc1F)=CCO2 [Example 1-85] | 3 to 30 |

| SMILES | Ki [nM] |
| --- | --- |
| CC1(C)C=C(c2cc(F)c(F)cc2F)c2cc(C(=O)N=C(N)N)ccc2O1 [Example 1-120] | 30 to 300 |
| Cc1ccc(C2=CCOc3ccc(C(=O)N=C(N)N)cc32)c(Cl)c1 [Example 1-91] | 0.3 to 3 |
| N#Cc1ccccc1C1=CCSc2ccc(C(=O)N=C(N)N)cc21 [Example 3-19] | 3 to 30 |
| N#Cc1cc(C2=CCCc3ccc(C(=O)N=C(N)N)cc32)ccc1F [Example 2-62] | 30 to 300 |
| Cn1cc(C2=CCCc3ccc(C(=O)N=C(N)N)cc32)cn1 [Example 2-77] | 30 to 300 |
| Cc1ccc(C2=CCCc3ccc(C(=O)N=C(N)N)cc32)c(C#N)c1 [Example 2-79] | 3 to 30 |
| CC1=C(c2cc(F)c(F)cc2F)c2cc(C(=O)N=C(N)N)ccc2CC1 [Example 2-143] | 0.3 to 3 |
| NC(N)=NC(=O)c1ccc2c(c1)C(c1c(F)cc(F)cc1F)=CCCC2 [Example 3-05] | 3 to 30 |
| COc1ccc(C2=CCCc3ccc(C(=O)N=C(N)N)cc32)c(C(F)(F)F)c1 [Example 2-165] | 3 to 30 |
| COc1cccc(C2=CCCc3ccc(C(=O)N=C(N)N)cc32)c1 [Example 2-05] | 3 to 30 |
| COc1cc(C#N)ccc1C1=C(F)CCc2ccc(C(=O)N=C(N)N)cc21 [Example 2-166] | 0.3 to 3 |
| NC(N)=NC(=O)c1ccc2c(c1)C(c1ccccc1Oc1ccccc1)=CCC2 [Example 2-33] | 30 to 300 |
| NC(N)=NC(=O)c1ccc2c(c1)C(c1cccc(F)c1Cl)=CCC2 [Example 2-168] | 0.3 to 3 |
| COc1ccccc1-c1c(C)sc2ccc(C(=O)N=C(N)N)cc12 [Example 3-33] | 0.3 to 3 |
| NC(N)=NC(=O)c1ccc2c(c1)C(c1ccccc1)=C(F)CO2 [Example 1-14] | 0.97 |
| NC(N)=NC(=O)c1ccc2c(c1)C(c1ccccc1)=CCCC2 [Example 3-03] | 30 to 300 |
| COc1ccc(C2=CCCc3ccc(C(=O)N=C(N)N)cc32)c(OC)n1 [Example 2-173] | 3 to 30 |
